Results on 22 compounds are retold here after patent US9586951B2 (FUJIFILM Corporation, priority 2013, dated 2017).

The target of assay [1] is T1, ATM (Homo sapiens, UniProt Q13315).
T1 construct: detecting phosphorylation of Chk2 in a human non-small cell lung cancer cell line NCI-H460 (ATCC company); host or cells: NCI-H460 human non-small cell lung cancer cells
Description: ATM inhibition test (phosphorylation of Chk2 generated by ionizing radiation, AlphaScreen SureFire). The assay is classed as cell-based. As to conditions: phosphorylated Chk2 in NCI-H460 cells, ionizing radiation 8Gy, 1 hour after test compound treatment; read-out: ATM inhibitory activity. Summed up:
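In NCI-H460 cells, radiation-triggered Chk2 phosphorylation (8Gy, 1 h) is detected by AlphaScreen SureFire following 1 h compound exposure.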

For assay [2], the system named is human non-small cell lung cancer cell line NCI-H460. Description: Cell proliferation inhibition test by sensitivity-enhancing to ionizing radiation (Cell Titer Glo). The assay is classed as cell-based. As to conditions: Homo sapiens, NCI-H460, 120 h, concentration in which SER became 2; NCI-H460 cells, ionizing radiation 2 Gy, cultured 120 hour. As to the method:
A human non-small cell lung cancer cell line NCI-H460 (ATCC company) was adjusted so as to be 2×10^3 cells/mL in a RPMI-1640 medium containing penicillin/streptomycin and FBS having a final concentration of 10%, and this was seeded by 100 μL per well in 96-well CellBIND® plates (Corning International Inc.). After 24 hours, the medium of cells was replaced with 100 μL of a medium including serially diluted liquid of the test compound or DMSO having a final concentration of 0.1%. 30 minutes after the medium was replaced, half of the plates were irradiated with ionizing radiation 2 Gy (Faxitron Bioptics, LLC, RX-650 type). The cells of the plates irradiated with ionizing radiation and the plates not being irradiated with ionizing radiation were cultured at 37° C. for 120 hour in 5% CO2. After a Cell Titer Glo reaction liquid of an equal volume was added to each well, the amount of luminescence was measured, according to the instruction book of Cell Titer Glo (Promega Corporation). Since the amount of luminescence is proportional to the ATP concentration in cells, the amount of luminescence was used as an indicator of the number of viable cells. Sensitivity-enhancing effects (SER) to ionizing radiation by the test compound was calculated by the following equation. SER=(amount of luminescence of wells including DMSO having a final concentration of 0.1% in the plates irradiated with ionizing radiation×amount of luminescence of wells including a compound in the plates not being irradiated with ionizing radiation)/(amount of luminescence of wells including the test compound in the plates irradiated with ionizing radiation×amount of luminescence of wells including DMSO having a final concentration of 0.1% in the plates not being irradiated with ionizing radiation)
SER at each compound concentration was plotted by nonlinear regression fit (FitModel (205)) by a sigmoidal dose-response equation using XLfit software (IDBS), and the concentration (SER2) in which SER became 2 was calculated.

T1 sequence (Q13315 whole entry): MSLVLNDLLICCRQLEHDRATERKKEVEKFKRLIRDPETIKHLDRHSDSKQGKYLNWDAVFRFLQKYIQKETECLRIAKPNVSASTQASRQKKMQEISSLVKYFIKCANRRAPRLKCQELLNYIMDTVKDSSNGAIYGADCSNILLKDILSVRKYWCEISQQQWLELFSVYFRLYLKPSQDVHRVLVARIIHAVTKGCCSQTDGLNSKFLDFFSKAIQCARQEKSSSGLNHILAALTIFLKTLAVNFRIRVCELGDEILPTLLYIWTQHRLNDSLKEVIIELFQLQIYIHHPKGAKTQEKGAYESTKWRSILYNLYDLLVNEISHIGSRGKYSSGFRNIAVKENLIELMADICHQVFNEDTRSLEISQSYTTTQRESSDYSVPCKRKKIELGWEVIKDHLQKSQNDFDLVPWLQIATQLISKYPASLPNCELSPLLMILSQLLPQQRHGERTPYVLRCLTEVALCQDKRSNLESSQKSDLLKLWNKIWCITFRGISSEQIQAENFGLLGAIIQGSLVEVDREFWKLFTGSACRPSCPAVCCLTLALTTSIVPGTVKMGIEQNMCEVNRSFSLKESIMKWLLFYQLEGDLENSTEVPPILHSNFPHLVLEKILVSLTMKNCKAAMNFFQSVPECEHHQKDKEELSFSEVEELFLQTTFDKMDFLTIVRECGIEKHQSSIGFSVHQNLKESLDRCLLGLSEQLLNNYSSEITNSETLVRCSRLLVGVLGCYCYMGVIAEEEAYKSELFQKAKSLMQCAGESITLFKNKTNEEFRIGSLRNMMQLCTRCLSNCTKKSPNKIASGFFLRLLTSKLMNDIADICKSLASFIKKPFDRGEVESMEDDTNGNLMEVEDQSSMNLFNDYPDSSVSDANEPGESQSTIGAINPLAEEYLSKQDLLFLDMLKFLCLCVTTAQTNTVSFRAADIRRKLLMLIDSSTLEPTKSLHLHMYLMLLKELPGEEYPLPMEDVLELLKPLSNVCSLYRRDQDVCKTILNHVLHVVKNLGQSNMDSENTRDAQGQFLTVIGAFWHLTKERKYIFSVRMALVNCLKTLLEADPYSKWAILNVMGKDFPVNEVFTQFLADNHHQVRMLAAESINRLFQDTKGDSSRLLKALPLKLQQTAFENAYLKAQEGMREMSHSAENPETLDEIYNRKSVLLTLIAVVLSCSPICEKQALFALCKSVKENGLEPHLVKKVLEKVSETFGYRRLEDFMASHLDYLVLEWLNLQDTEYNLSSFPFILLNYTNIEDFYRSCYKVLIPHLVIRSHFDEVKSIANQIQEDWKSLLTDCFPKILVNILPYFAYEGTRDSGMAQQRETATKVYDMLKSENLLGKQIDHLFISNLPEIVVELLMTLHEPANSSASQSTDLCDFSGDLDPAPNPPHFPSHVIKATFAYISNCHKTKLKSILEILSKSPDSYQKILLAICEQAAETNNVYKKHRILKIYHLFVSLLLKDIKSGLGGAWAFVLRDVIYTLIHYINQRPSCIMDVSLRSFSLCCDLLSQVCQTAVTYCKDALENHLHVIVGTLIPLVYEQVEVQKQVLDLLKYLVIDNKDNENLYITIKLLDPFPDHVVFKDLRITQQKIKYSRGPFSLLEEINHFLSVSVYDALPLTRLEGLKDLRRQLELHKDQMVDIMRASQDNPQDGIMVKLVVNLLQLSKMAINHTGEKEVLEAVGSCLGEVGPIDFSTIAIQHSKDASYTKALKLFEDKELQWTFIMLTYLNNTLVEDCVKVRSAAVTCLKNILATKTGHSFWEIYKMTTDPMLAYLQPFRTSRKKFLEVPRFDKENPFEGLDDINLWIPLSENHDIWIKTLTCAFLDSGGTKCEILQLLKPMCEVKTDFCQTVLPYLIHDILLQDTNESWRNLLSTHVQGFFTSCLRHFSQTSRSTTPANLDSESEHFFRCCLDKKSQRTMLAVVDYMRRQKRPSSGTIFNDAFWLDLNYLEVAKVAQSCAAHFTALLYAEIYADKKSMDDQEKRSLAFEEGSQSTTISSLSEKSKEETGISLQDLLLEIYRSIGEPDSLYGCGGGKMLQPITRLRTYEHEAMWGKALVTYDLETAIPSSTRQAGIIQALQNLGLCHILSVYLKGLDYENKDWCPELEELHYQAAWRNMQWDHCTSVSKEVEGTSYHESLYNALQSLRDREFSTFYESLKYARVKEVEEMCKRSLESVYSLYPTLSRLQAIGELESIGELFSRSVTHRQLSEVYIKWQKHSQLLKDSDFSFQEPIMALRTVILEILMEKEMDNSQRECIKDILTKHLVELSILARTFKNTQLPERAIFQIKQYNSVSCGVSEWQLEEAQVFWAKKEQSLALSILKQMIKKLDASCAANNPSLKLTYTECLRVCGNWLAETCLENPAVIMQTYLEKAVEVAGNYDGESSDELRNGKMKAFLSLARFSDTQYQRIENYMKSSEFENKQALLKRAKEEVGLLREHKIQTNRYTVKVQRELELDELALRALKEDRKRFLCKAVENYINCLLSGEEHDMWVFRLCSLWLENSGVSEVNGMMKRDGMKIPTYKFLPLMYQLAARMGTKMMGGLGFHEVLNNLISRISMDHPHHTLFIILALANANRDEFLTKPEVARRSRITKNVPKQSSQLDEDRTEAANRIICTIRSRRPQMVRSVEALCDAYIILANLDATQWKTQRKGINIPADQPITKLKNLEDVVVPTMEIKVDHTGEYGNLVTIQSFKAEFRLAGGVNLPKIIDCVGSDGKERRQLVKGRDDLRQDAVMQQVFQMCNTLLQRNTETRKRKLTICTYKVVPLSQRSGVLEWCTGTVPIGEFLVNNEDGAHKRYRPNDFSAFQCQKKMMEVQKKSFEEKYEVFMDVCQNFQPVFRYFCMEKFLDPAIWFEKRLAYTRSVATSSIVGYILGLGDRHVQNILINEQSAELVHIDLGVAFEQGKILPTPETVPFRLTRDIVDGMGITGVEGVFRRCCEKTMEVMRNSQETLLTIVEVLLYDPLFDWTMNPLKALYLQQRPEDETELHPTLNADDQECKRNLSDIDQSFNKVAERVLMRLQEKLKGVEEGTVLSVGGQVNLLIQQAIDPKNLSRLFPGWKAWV

Consider `CC(Nc1ccc2c(c1)Sc1cccc(-c3cc(N4CCOCC4)cc(=O)[nH]3)c1S2)c1cc(C#N)ncn1` (single isomer, unassigned) [Example 1-12-146-1, 6-(1-((6-(4-morpholino-6-oxo-1,6-dihydropyridin-2-yl)thianthren-2-yl)amino)ethyl)pyrimidine-4-carbonitrile], for which the IC50 in assay [1] was less than 100 nM. Further, in assay [2], the SER2 (concentration at which the radiation sensitivity-enhancement ratio reaches 2) is 100 to 500 nM.
In the same order, the values of `Cc1ccc(C(C)Nc2ccc3c(c2)Sc2cccc(-c4cc(N5CCOCC5)cc(=O)[nH]4)c2S3)nc1` (single isomer, unassigned) [Example 1-12-143-1, 6-(7-((1-(5-methylpyridin-2-yl)ethyl)amino)thianthren-1-yl)-4-morpholinopyridin-2(1H)-one] are less than 100 nM and less than 100 nM.
Turning to `COCC(CN1CC2CCC(C1)O2)Nc1ccc2c(c1)Sc1cccc(-c3cc(N4CCOCC4)cc(=O)[nH]3)c1S2` [Example 1-46-10, 6-(7-(((2S)-1-(8-Oxa-3-azabicyclo[3.2. l]octan-3-yl)-3-methoxypropan-2-yl)amino)thianthren-1-yl)-4-morpholino pyridin-2(1H)-one], the IC50 in assay [1] is less than 100 nM. For the same compound, the SER2 (concentration at which the radiation sensitivity-enhancement ratio reaches 2) in assay [2] lay in the range of 100 to 500 nM.
Consider `Cc1ccnc(CNc2ccc3c(c2)Cc2cccc(-c4cc(N5CCOCC5)cc(=O)[nH]4)c2O3)c1` [Example 2-2-40, 6-(7-(((4-Methylpyridin-2-yl)methyl)amino)-9H-xanthen-4-yl)-4-morpholino pyridin-2(1H)-one], for which the IC50 in assay [1] is less than 100 nM. In assay [2], the SER2 (concentration at which the radiation sensitivity-enhancement ratio reaches 2) lay within 100 to 500 nM.
In the same order, the values of `COc1cncc(CNc2ccc3c(c2)Cc2cccc(-c4cc(N5CCOCC5)cc(=O)[nH]4)c2O3)n1` [Example 2-13-9, 6-(7-(((6-Methoxypyrazin-2-yl)methyl)amino)-9H-xanthen-4-yl)-4-morpholino pyridin-2(1H)-one] are less than 100 nM and 500 to 2000 nM.
For `Cc1cccc(C(CCN2CCOCC2)Nc2ccc3c(c2)Sc2cccc(-c4cc(N5CCOCC5)cc(=O)[nH]4)c2S3)n1` (centres unmarked) [Example 1-34-4], in that order: less than 100 nM and less than 100 nM.
In the same order, the values of `Cc1cccc(C(CO)Nc2ccc3c(c2)Sc2cccc(-c4cc(N5CCOCC5)cc(=O)[nH]4)c2S3)n1` (single isomer, unassigned) [Example 1-12-140-2, 6-(7-((2-hydroxy-1-(6-methylpyridin-2-yl)ethyl)amino)thianthren-1-yl)-4-morpholinopyridin-2(1H)-one] are less than 100 nM and less than 100 nM.
Take `Cc1ccnc(CNc2ccc3c(c2)Sc2cccc(-c4cc(N5CCOCC5)cc(=O)[nH]4)c2O3)c1` [Example 4-8-19, 6-(8-(((4-Methylpyridin-2-yl)methyl)amino)phenoxathiin-4-yl)-4-morpholino pyridin-2(1H)-one]: the IC50 in assay [1] was less than 100 nM. In addition, in assay [2], the SER2 (concentration at which the radiation sensitivity-enhancement ratio reaches 2) lay within 100 to 500 nM.
In the same order, the values of `CC(Nc1ccc2c(c1)Cc1cccc(-c3cc(N4CCOCC4)cc(=O)[nH]3)c1O2)c1cccc(F)n1` (single isomer, unassigned) [Example 2-14-87-1, 6-(7-((1-(6-fluoropyridin-2-yl)ethyl)amino)-9H-xanthen-4-yl)-4-morpholinopyridin-2(1H)-one] are less than 100 nM and 100 to 500 nM.
For `Cc1cccc(CNc2ccc3c(c2)Sc2cccc(-c4cc(N5CCOCC5)cc(=O)[nH]4)c2S3)n1` [Example 1-12-2, 6-(7-(((6-Methylpyridin-2-yl)methyl)amino)thianthren-1-yl)-4-1-morpholino pyridin-2 (1H)-one], in that order: less than 100 nM and less than 100 nM.
On to `COc1cncc(CN2CCC(Nc3ccc4c(c3)Cc3cccc(-c5cc(N6CCOCC6)cc(=O)[nH]5)c3O4)CC2)n1` [Example 2-28-23, 6-(7-((1-((6-Methoxypyrazin-2-yl)methyl)piperidin-4-yl)amino)-9H-xanthen-4-yl)-4-morpholino pyridin-2(1H)-one], for which the IC50 in assay [1] is less than 100 nM. The SER2 (concentration at which the radiation sensitivity-enhancement ratio reaches 2) in assay [2] lay within 500 to 2000 nM.
In the same order, the values of `CC(CN1CCN(C)CC1)Nc1ccc2c(c1)Sc1cccc(-c3cc(N4CCOCC4)cc(=O)[nH]3)c1S2` (single isomer, unassigned) [Example 1-13-3-2, 6-(7-((1-(4-methylpiperazin-1-yl)propan-2-yl)amino)thianthren-1-yl)-4-morpholinopyridin-2(1H)-one] are less than 100 nM and 100 to 500 nM.
For `CC(Nc1ccc2c(c1)Cc1cccc(-c3cc(N4CCOCC4)cc(=O)[nH]3)c1O2)c1cccc(F)n1` (centres unmarked) [Example 2-14-21, 6-(7-((1-(6-Fluoropyridin-2-yl)ethyl)amino)-9H-xanthen-4-yl)-4-morpholino pyridin-2(1H)-one], in that order: less than 100 nM and 100 to 500 nM.
In the same order, the values of `CC(CN1CCN(c2ccccc2)CC1)Nc1ccc2c(c1)Sc1cccc(-c3cc(N4CCOCC4)cc(=O)[nH]3)c1S2` (centres unmarked) [Example 1-13-15, 4-Morpholino-6-(7-((1-(4-phenylpiperazin-1-yl)propan-2-yl)amino)thianthren-1-yl)pyridin-2 (1H)-one] are less than 100 nM and 100 to 500 nM.
On to `Cc1ccnc(C(C)Nc2ccc3c(c2)Sc2cccc(-c4cc(N5CCOCC5)cc(=O)[nH]4)c2S3)c1` (centres unmarked) [Example 1-12-29], for which, in assay [1], the IC50 was less than 100 nM. In assay [2], the SER2 (concentration at which the radiation sensitivity-enhancement ratio reaches 2) was less than 100 nM.
As to `COc1cc(CNc2ccc3c(c2)Sc2cccc(-c4cc(N5CCOCC5)cc(=O)[nH]4)c2O3)cnc1OC` [Example 4-4-12, 6-(8-(((5,6-Dimethoxypyridin-3-yl)methyl)amino)phenoxathiin-4-yl)-4-morpholino pyridin-2(1H)-one], in assay [1], the IC50 is less than 100 nM. Also, in assay [2], the SER2 (concentration at which the radiation sensitivity-enhancement ratio reaches 2) lay within 100 to 500 nM.
As to `O=c1cc(N2CCOCC2)cc(-c2cccc3c2Sc2ccc(N[C@@H]4CCCC[C@@H]4N4CCOCC4)cc2S3)[nH]1` [Example 1-48-2, 4-Morpholino-6-(7-(((1R,2S)-2-morpholinocyclohexyl)amino)thianthren-1-yl)pyridin-2(1H)-one], in assay [1], the IC50 was less than 100 nM. In addition, the SER2 (concentration at which the radiation sensitivity-enhancement ratio reaches 2) in assay [2] is less than 100 nM.
Take `CC(CNc1ccc2c(c1)Sc1cccc(-c3cc(N4CCOCC4)cc(=O)[nH]3)c1S2)N1CCOCC1` (racemic) [Example 1-9-2-1, 4-Morpholino-6-(7-((2-morpholinopropyl)amino)thianthren-1-yl)pyridin-2(1H)-one]: the IC50 in assay [1] was less than 100 nM. Also, the SER2 (concentration at which the radiation sensitivity-enhancement ratio reaches 2) in assay [2] lay in the range of 100 to 500 nM.
For `CN(C)c1cnc(CNc2ccc3c(c2)Sc2cccc(-c4cc(N5CCOCC5)cc(=O)[nH]4)c2O3)cn1` [Example 4-4-17, 6-(8-(((5-(Dimethylamino)pyrazin-2-yl)methyl)amino)phenoxathiin-4-yl)-4-morpholino pyridin-2(1H)-one], in that order: less than 100 nM and 100 to 500 nM.
In the same order, the values of `Cc1ccnc(CNc2ccc3c(c2)Sc2cccc(-c4cc(N5CCOCC5)cc(=O)[nH]4)c2S3)c1` [Example 1-12-5, 6-(7-(((4-Methylpyridin-2-yl)methyl)amino)thianthren-1-yl)-4-morpholino pyridin-2 (1H)-one] are less than 100 nM and 100 to 500 nM.
In the same order, the values of `CC(Nc1ccc2c(c1)Sc1cccc(-c3cc(N4CCOCC4)cc(=O)[nH]3)c1S2)c1ncc(CO)cn1` (single isomer, unassigned) [Example 1-12-142-1, 6-(7-((1-(5-(hydroxymethyl)pyrimidin-2-yl)ethyl)amino)thianthren-1-yl)-4-morpholinopyridin-2(1H)-one] are less than 100 nM and 100 to 500 nM.
For `O=c1cc(N2CCOCC2)cc(-c2cccc3c2Oc2ccc(NCc4cncc(C5C=CCC5)c4)cc2C3)[nH]1` (centres unmarked) [Example 2-2-60, 6-(7-(((5-(Cyclopent-2-en-1-yl)pyridin-3-yl)methyl)amino)-9H-xanthen-4-yl)-4-morpholino pyridin-2(1H)-one], the IC50 in assay [1] was less than 100 nM. Moreover, the SER2 (concentration at which the radiation sensitivity-enhancement ratio reaches 2) in assay [2] is 500 to 2000 nM.
